According to publication PMC6407913, “DREADD Agonist 21 Is an Effective Agonist for Muscarinic-Based DREADDs in Vitro and in Vivo” (ACS Pharmacology & Translational Science, 2018):
“And” between values parts separate entries of the source, which are not always exact repeats. Equal values may be shown once.

Legend:
Type in all cases: cell-based
[1] = biological target: T1, 318 nonolfactory human GPCRs (Homo sapiens, UniProt Q9HC97); conditions: GPR35; C21 5 µM
T1 construct: expressed in transfected cells; host or cells: HTLA cells, transient

[2] = biological target: T2, 318 nonolfactory human GPCRs (Homo sapiens, UniProt P48039); conditions: MTNR1A; C21 5 µM
T2 construct: expressed in transfected cells; host or cells: HTLA cells, transient

[3] = biological target: T3, 318 nonolfactory human GPCRs (Homo sapiens, UniProt Q8IZP9); conditions: GPR64; C21 5 µM
T3 construct: expressed in transfected cells; host or cells: HTLA cells, transient

[4] = biological target: T4, 318 nonolfactory human GPCRs (Homo sapiens, UniProt O00155); conditions: GPR25; C21 5 µM
T4 construct: expressed in transfected cells; host or cells: HTLA cells, transient

[5] = biological target: 318 nonolfactory human GPCRs (Homo sapiens, UniProt P07550); conditions: ADRB2; C21 5 µM
[6] = biological target: T5, 318 nonolfactory human GPCRs (Homo sapiens, UniProt Q9UJ42); conditions: GPR160; C21 5 µM
T5 construct: expressed in transfected cells; host or cells: HTLA cells, transient

[7] = biological target: 318 nonolfactory human GPCRs (Homo sapiens, UniProt P31391); conditions: SSTR4; C21 5 µM
[8] = biological target: T6, 318 nonolfactory human GPCRs (Homo sapiens, UniProt Q9NPC1); conditions: LTB4R2B; C21 5 µM
T6 construct: expressed in transfected cells; host or cells: HTLA cells, transient

[9] = biological target: T7, 318 nonolfactory human GPCRs (Homo sapiens, UniProt Q01718); conditions: MC2R; C21 5 µM
T7 construct: expressed in transfected cells; host or cells: HTLA cells, transient

[10] = biological target: T8, 318 nonolfactory human GPCRs (Homo sapiens, UniProt Q9Y2T5); conditions: GPR52; C21 5 µM
T8 construct: expressed in transfected cells; host or cells: HTLA cells, transient

[11] = biological target: T9, 318 nonolfactory human GPCRs (Homo sapiens, UniProt Q86SM8); conditions: MRGPRE; C21 5 µM
T9 construct: expressed in transfected cells; host or cells: HTLA cells, transient

[12] = biological target: T10, 318 nonolfactory human GPCRs (Homo sapiens, UniProt P47775); conditions: GPR12; C21 5 µM
T10 construct: expressed in transfected cells; host or cells: HTLA cells, transient

[13] = biological target: T11, 318 nonolfactory human GPCRs (Homo sapiens, UniProt Q86Y34); conditions: GPR97; C21 5 µM
T11 construct: expressed in transfected cells; host or cells: HTLA cells, transient

[14] = biological target: T12, 318 nonolfactory human GPCRs (Homo sapiens, UniProt Q9HBX9); conditions: RXFP1; C21 5 µM
T12 construct: expressed in transfected cells; host or cells: HTLA cells, transient

[15] = biological target: T13, 318 nonolfactory human GPCRs (Homo sapiens, UniProt P46091); conditions: GPR1; C21 5 µM
T13 construct: expressed in transfected cells; host or cells: HTLA cells, transient

[16] = biological target: T14, 318 nonolfactory human GPCRs (Homo sapiens, UniProt P50391); conditions: NPY4R; C21 5 µM
T14 construct: expressed in transfected cells; host or cells: HTLA cells, transient

[17] = biological target: 318 nonolfactory human GPCRs (Homo sapiens, UniProt P41595); conditions: HTR2B; C21 5 µM
[18] = biological target: 318 nonolfactory human GPCRs (Homo sapiens, UniProt P28223); conditions: HTR2A; C21 5 µM
[19] = biological target: T15, 318 nonolfactory human GPCRs (Homo sapiens, UniProt Q9BPV8); conditions: P2RY13; C21 5 µM
T15 construct: expressed in transfected cells; host or cells: HTLA cells, transient

[20] = biological target: T16, 318 nonolfactory human GPCRs (Homo sapiens, UniProt P34995); conditions: PTGER1; C21 5 µM
T16 construct: expressed in transfected cells; host or cells: HTLA cells, transient

[21] = biological target: T17, 318 nonolfactory human GPCRs (Homo sapiens, UniProt Q9BY21); conditions: GPR87; C21 5 µM
T17 construct: expressed in transfected cells; host or cells: HTLA cells, transient

[22] = biological target: 318 nonolfactory human GPCRs (Homo sapiens, UniProt P28566); conditions: HTR1E; C21 5 µM
[23] = biological target: T18, 318 nonolfactory human GPCRs (Homo sapiens, UniProt P46663); conditions: BDKBR1; C21 5 µM
T18 construct: expressed in transfected cells; host or cells: HTLA cells, transient

[24] = biological target: T19, 318 nonolfactory human GPCRs (Homo sapiens, UniProt Q9GZN0); conditions: GPR88; C21 5 µM
T19 construct: expressed in transfected cells; host or cells: HTLA cells, transient

[25] = biological target: T20, 318 nonolfactory human GPCRs (Homo sapiens, UniProt P29274); conditions: ADORA2A; C21 5 µM
T20 construct: expressed in transfected cells; host or cells: HTLA cells, transient

[26] = biological target: 318 nonolfactory human GPCRs (Homo sapiens, UniProt P46093); conditions: GPR4; C21 5 µM
[27] = biological target: T21, 318 nonolfactory human GPCRs (Homo sapiens, UniProt P20309); conditions: CHRM3; C21 5 µM
T21 construct: expressed in transfected cells; host or cells: HTLA cells, transient

[28] = biological target: T22, 318 nonolfactory human GPCRs (Homo sapiens, UniProt Q969N4); conditions: TAAR8; C21 5 µM
T22 construct: expressed in transfected cells; host or cells: HTLA cells, transient

[29] = biological target: T23, 318 nonolfactory human GPCRs (Homo sapiens, UniProt P41587); conditions: VIPR2; C21 5 µM
T23 construct: expressed in transfected cells; host or cells: HTLA cells, transient

[30] = biological target: T24, 318 nonolfactory human GPCRs (Homo sapiens, UniProt Q8NDV2); conditions: GPR26; C21 5 µM
T24 construct: expressed in transfected cells; host or cells: HTLA cells, transient

[31] = biological target: T25, 318 nonolfactory human GPCRs (Homo sapiens, UniProt Q8TDS7); conditions: MRGPRD; C21 5 µM
T25 construct: expressed in transfected cells; host or cells: HTLA cells, transient

[32] = biological target: 318 nonolfactory human GPCRs (Homo sapiens, UniProt P21728); conditions: DRD1; C21 5 µM
[33] = biological target: T26, 318 nonolfactory human GPCRs (Homo sapiens, UniProt P47901); conditions: AVPR1B; C21 5 µM
T26 construct: expressed in transfected cells; host or cells: HTLA cells, transient

[34] = biological target: T27, 318 nonolfactory human GPCRs (Homo sapiens, UniProt P32248); conditions: CCR7; C21 5 µM
T27 construct: expressed in transfected cells; host or cells: HTLA cells, transient

T20 sequence (P29274 whole entry): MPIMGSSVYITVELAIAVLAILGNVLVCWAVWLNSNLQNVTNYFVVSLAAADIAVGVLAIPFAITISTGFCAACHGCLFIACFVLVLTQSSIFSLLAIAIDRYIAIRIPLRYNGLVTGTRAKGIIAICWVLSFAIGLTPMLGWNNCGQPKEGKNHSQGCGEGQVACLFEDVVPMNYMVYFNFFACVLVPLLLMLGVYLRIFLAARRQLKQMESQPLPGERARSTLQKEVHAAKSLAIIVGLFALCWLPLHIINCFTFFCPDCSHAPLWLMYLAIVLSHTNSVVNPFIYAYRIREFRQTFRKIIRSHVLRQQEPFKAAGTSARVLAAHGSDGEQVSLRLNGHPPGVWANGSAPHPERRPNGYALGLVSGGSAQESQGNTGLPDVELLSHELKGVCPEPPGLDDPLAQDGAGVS
T23 sequence (P41587 24-438): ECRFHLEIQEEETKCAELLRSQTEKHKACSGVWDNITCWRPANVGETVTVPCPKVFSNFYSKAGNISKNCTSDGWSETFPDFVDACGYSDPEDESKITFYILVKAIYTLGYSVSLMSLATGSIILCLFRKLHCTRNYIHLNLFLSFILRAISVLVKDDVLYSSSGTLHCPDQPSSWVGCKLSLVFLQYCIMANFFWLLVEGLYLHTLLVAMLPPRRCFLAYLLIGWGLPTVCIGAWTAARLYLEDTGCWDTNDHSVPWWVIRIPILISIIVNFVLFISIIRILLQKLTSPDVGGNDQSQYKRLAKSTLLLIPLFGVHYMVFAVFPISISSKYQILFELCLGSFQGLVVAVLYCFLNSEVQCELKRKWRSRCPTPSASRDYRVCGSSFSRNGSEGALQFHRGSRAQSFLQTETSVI
T16 sequence (P34995 whole entry): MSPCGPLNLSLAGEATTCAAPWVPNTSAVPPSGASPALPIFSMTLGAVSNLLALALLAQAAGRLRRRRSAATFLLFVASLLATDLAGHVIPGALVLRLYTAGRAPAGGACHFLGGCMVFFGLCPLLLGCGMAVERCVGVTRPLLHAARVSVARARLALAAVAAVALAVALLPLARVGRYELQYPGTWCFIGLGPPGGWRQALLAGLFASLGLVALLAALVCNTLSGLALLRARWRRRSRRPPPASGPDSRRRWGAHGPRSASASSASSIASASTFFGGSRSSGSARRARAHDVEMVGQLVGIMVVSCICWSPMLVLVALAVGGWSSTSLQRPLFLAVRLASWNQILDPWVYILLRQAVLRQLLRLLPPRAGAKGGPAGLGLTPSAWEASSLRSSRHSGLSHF
318 nonolfactory human GPCRs (Homo sapiens, UniProt P28566), sequence (P28566 whole entry): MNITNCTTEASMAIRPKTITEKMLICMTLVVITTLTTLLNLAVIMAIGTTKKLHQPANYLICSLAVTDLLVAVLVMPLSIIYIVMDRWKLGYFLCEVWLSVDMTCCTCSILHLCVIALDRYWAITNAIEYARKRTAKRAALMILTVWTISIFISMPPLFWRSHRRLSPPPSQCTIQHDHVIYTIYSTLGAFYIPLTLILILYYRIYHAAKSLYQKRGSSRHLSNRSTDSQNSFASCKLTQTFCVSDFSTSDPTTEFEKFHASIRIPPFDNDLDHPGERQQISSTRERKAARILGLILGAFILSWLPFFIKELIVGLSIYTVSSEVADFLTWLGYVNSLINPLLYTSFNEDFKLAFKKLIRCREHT
T11 sequence (Q86Y34 21-549): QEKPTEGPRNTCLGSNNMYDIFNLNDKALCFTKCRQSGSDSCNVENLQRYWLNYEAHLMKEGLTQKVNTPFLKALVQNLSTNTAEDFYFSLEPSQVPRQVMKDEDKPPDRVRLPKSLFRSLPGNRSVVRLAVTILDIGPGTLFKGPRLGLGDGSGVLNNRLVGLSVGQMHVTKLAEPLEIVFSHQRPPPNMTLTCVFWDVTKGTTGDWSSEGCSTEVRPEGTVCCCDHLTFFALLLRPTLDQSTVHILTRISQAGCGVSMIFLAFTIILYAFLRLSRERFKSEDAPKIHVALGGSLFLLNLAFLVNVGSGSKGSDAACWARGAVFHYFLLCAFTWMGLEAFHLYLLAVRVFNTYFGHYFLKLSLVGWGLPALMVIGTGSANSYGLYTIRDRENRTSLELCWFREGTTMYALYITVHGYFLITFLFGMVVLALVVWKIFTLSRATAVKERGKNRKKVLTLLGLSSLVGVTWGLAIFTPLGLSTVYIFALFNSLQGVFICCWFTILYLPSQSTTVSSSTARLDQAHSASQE
T25 sequence (Q8TDS7 whole entry): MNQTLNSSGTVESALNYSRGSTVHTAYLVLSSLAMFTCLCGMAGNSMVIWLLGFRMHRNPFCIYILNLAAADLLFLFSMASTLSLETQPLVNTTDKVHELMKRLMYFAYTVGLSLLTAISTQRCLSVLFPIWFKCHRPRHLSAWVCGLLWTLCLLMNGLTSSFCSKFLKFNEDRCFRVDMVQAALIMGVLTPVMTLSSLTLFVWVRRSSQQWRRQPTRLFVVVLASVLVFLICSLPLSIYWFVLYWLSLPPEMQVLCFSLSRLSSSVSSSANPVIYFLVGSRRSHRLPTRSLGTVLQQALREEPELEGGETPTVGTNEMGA
T7 sequence (Q01718 whole entry): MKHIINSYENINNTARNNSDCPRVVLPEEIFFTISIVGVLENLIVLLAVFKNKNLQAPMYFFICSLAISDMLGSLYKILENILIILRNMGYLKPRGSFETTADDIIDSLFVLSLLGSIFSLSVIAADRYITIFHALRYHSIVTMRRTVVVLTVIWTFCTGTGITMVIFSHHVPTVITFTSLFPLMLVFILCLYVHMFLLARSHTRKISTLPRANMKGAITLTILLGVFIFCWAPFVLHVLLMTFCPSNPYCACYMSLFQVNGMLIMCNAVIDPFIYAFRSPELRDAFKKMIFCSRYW
T15 sequence (Q9BPV8 whole entry): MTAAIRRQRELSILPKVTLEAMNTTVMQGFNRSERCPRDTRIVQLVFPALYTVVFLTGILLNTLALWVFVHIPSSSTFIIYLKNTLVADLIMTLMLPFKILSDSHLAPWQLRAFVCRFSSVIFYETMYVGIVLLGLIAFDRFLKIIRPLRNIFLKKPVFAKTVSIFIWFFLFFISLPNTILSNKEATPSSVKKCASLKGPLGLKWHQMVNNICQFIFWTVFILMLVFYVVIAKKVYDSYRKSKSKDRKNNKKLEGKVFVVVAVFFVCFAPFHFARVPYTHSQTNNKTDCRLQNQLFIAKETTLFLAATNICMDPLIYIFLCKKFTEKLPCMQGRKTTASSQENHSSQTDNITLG
318 nonolfactory human GPCRs (Homo sapiens, UniProt P31391), sequence (P31391 whole entry): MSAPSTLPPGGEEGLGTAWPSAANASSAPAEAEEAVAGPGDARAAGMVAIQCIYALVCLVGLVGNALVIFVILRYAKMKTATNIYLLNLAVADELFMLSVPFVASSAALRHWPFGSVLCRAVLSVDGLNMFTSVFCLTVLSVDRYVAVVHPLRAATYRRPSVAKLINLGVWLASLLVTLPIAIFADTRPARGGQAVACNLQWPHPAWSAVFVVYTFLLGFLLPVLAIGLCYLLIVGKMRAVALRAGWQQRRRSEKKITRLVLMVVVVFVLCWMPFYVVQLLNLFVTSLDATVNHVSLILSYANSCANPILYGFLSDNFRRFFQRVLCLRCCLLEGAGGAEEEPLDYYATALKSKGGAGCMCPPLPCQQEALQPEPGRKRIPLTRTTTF
T21 sequence (P20309 whole entry): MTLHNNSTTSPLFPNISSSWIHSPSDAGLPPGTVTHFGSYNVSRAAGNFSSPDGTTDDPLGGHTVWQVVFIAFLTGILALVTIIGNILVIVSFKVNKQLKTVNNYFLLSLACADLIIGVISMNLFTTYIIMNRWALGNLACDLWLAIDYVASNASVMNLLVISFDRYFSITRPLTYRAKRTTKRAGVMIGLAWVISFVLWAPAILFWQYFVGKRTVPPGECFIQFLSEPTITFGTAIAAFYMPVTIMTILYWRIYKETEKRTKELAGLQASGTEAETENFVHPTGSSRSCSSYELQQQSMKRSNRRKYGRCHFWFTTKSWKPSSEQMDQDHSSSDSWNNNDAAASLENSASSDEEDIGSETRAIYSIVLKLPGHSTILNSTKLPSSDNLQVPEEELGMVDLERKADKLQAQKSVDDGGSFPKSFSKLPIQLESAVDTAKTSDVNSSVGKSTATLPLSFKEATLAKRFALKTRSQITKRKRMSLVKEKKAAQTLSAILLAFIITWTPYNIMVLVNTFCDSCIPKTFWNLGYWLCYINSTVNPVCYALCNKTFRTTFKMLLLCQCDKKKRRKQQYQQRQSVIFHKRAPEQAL
T24 sequence (Q8NDV2 whole entry): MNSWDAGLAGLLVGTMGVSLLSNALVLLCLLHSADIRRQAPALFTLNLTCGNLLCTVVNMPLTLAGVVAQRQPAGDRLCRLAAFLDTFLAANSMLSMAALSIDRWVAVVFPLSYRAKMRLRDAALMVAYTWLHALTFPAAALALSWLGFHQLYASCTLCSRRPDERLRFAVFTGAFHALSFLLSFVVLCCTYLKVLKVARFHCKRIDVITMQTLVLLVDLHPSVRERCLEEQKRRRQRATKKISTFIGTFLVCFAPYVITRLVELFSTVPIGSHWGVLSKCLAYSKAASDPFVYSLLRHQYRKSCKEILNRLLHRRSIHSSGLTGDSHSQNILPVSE
T14 sequence (P50391 whole entry): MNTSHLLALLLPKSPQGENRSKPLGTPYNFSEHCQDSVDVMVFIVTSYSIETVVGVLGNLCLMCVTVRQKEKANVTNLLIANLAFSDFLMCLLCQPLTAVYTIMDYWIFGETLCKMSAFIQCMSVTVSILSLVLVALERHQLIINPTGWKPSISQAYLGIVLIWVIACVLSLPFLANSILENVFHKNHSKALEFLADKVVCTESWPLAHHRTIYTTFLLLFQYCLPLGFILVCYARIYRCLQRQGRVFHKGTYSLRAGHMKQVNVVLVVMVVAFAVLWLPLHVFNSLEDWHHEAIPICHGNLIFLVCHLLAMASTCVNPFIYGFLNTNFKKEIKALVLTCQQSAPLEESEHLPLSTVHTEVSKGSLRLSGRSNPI

SMILES: c1ccc2c(c1)N=C(N1CCNCC1)c1ccccc1N2 [C21, 11-(1-piperazinyl)-5H-dibenzo[b,e][1,4]diazepine]
- FOLD OVER BASAL [1]: 1 fold and 1.2 fold and 0.9 fold and 1.3 fold
- FOLD OVER BASAL [2]: 1.1 fold and 0.9 fold and 1 fold
- FOLD OVER BASAL [3]: 0.6 fold and 0.7 fold and 0.8 fold
- FOLD OVER BASAL [4]: 0.9 fold and 1.1 fold
- FOLD OVER BASAL [5]: 1.2 fold and 0.8 fold
- FOLD OVER BASAL [6]: 1.3 fold and 1 fold and 0.8 fold
- FOLD OVER BASAL [7]: 1.7 fold and 1.4 fold and 1.2 fold and 1.1 fold
- FOLD OVER BASAL [8]: 1 fold and 0.9 fold and 1.1 fold and 1.2 fold
- FOLD OVER BASAL [9]: 1.1 fold and 0.6 fold and 0.7 fold
- FOLD OVER BASAL [10]: 0.8 fold and 1 fold and 0.6 fold
- FOLD OVER BASAL [11]: 0.7 fold and 0.8 fold
- FOLD OVER BASAL [12]: 0.5 fold and 0.7 fold and 0.6 fold
- FOLD OVER BASAL [13]: 0.6 fold and 0.5 fold and 0.7 fold
- FOLD OVER BASAL [14]: 0.4 fold and 0.6 fold
- FOLD OVER BASAL [15]: 1.1 fold and 1.4 fold and 0.8 fold and 1 fold
- FOLD OVER BASAL [16]: 0.5 fold and 0.6 fold and 0.7 fold
- FOLD OVER BASAL [17]: 0.3 fold and 0.2 fold
- FOLD OVER BASAL [18]: 0.1 fold and 0.2 fold
- FOLD OVER BASAL [19]: 0.8 fold and 1 fold and 1.2 fold
- FOLD OVER BASAL [20]: 0.9 fold and 1 fold and 1.6 fold and 0.8 fold
- FOLD OVER BASAL [21]: 0.9 fold and 0.8 fold and 1 fold
- FOLD OVER BASAL [22]: 1 fold and 0.9 fold and 1.1 fold
- FOLD OVER BASAL [23]: 0.6 fold and 0.3 fold
- FOLD OVER BASAL [24]: 1.1 fold and 1.9 fold and 1.5 fold
- FOLD OVER BASAL [25]: 0.6 fold and 0.7 fold and 0.5 fold and 0.4 fold
- FOLD OVER BASAL [26]: 0.5 fold and 0.8 fold and 0.6 fold
- FOLD OVER BASAL [27]: 3.1 fold and 3.7 fold and 2.6 fold and 3.4 fold
- FOLD OVER BASAL [28]: 0.5 fold and 0.8 fold
- FOLD OVER BASAL [29]: 0.6 fold and 0.8 fold and 0.9 fold
- FOLD OVER BASAL [30]: 1.5 fold and 0.8 fold and 1 fold and 0.9 fold
- FOLD OVER BASAL [31]: 0.7 fold and 0.9 fold and 0.6 fold
- FOLD OVER BASAL [32]: 0.9 fold and 0.8 fold and 0.5 fold and 0.6 fold
- FOLD OVER BASAL [33]: 0.4 fold and 0.6 fold and 0.7 fold
- FOLD OVER BASAL [34]: 1.6 fold and 0.9 fold and 0.8 fold
